According to ChEMBL document CHEMBL3507680, “University of Dundee, Gates Library screen for HepG2 cell viability”:

Test: Human HepG2 cell viability assay in 384 well format
Assay type: toxicity, cell-based
Design: dose 125 nL, time 70.5 hour; concentration not given beside the values
Details: HepG2 cells, read-out: Inhibition

Structure (SMILES): Cc1cnn(CC2CCCN2C(=O)c2cccc(F)c2F)c1 (stereo not drawn)
- cytotoxicity at 70.5 h: -1.26%

Structure (SMILES): COCCc1noc(CN2CCCC2Cn2nc(C)cc2C)n1 (stereo not drawn)
- cytotoxicity at 70.5 h: 1.57%

Structure (SMILES): COc1cccc(S(=O)(=O)CCNC2CCc3ncnn3C2)c1 (stereo not drawn)
- cytotoxicity at 70.5 h: -4.52%

Structure (SMILES): O=C(COc1ccc(Cl)cc1)N1CCN(c2cnccn2)CC1
- cytotoxicity at 70.5 h: -0.713%

Structure (SMILES): Cc1noc(C)c1C(=O)NCC(C)N1CCc2ccccc21 (stereo not drawn)
- cytotoxicity at 70.5 h: 9.63%

Structure (SMILES): CS(=O)(=O)N1CCC(NC(=O)COc2ccccc2Cl)CC1
- cytotoxicity at 70.5 h: -3.89%

Structure (SMILES): Cc1ccc(OCC(=O)NC2CCN(S(C)(=O)=O)CC2)cc1
- cytotoxicity at 70.5 h: -1.26%

Structure (SMILES): COc1ncccc1NC(=O)NC1CCCN(c2ncccn2)C1 (stereo not drawn)
- cytotoxicity at 70.5 h: 1.22%

Structure (SMILES): COCCCNC(=O)Nc1ccc(F)c(C(N)=O)c1
- cytotoxicity at 70.5 h: 0.915%

Structure (SMILES): CCCc1nc(C)c(C(=O)NCCN2CCOCC2)s1
- cytotoxicity at 70.5 h: 21.3%

Structure (SMILES): COC(=O)c1cccn1C1CCN(Cc2cccc(C(N)=O)c2)CC1
- cytotoxicity at 70.5 h: -0.0643%

Structure (SMILES): CCOc1ncccc1NC(=O)NC1CCN(C(C)=O)CC1
- cytotoxicity at 70.5 h: 1.62%

Structure (SMILES): COc1ccc(OCC(=O)NS(=O)(=O)c2ccc(Br)s2)cc1
- cytotoxicity at 70.5 h: 18.9%

Structure (SMILES): COc1cc(C)ccc1OCC(=O)NS(=O)(=O)c1ccc(Br)s1
- cytotoxicity at 70.5 h: -4.31%

Structure (SMILES): Cc1cnn(CC2CCCCN2c2nn3cc(C)nc3s2)c1 (stereo not drawn)
- cytotoxicity at 70.5 h: 21.1%

Structure (SMILES): CN(CC(=O)N1CCCCC1c1nc(C(C)(C)C)cs1)C1CC1 (stereo not drawn)
- cytotoxicity at 70.5 h: 1.94%

Structure (SMILES): c1cnn(CCN2CCOC(Cn3cccn3)C2)c1 (stereo not drawn)
- cytotoxicity at 70.5 h: -4.95%

Structure (SMILES): OC1(CN2CCOC(Cn3cccn3)C2)CCCCC1 (stereo not drawn)
- cytotoxicity at 70.5 h: 0.595%

Structure (SMILES): Cc1ncccc1CNCC1CCCN1c1cccnn1 (stereo not drawn)
- cytotoxicity at 70.5 h: -3.29%

Structure (SMILES): Cc1cc(C(=O)N2CCCC(n3cncn3)C2)c(C)n1CC1CC1 (stereo not drawn)
- cytotoxicity at 70.5 h: -2.26%

Structure (SMILES): Cc1nnc(NC(=O)NCc2ccnc(N(C)C)c2)s1
- cytotoxicity at 70.5 h: 1.13%

Structure (SMILES): CC(NC(=O)NCc1cc(Br)cs1)c1ccccn1 (stereo not drawn)
- cytotoxicity at 70.5 h: -3.66%

Structure (SMILES): COc1ccc(C)cc1C(C)NC(=O)Cn1ccc(=O)n(C)c1=O (stereo not drawn)
- cytotoxicity at 70.5 h: -1.39%

Structure (SMILES): Cc1cc(C(=O)N2CCCC(n3cccn3)C2)c(C)n1C1CC1 (stereo not drawn)
- cytotoxicity at 70.5 h: -2.54%

Structure (SMILES): NC(=O)c1csc(C(=O)N2CCCC(n3cccn3)C2)c1 (stereo not drawn)
- cytotoxicity at 70.5 h: 1.27%

Structure (SMILES): CC(C)=CCN1CCOC(Cn2cccn2)C1 (stereo not drawn)
- cytotoxicity at 70.5 h: 1.11%

Structure (SMILES): Cc1cn2nc(N3CCCC3Cn3nc(C)nc3C)sc2n1 (stereo not drawn)
- cytotoxicity at 70.5 h: -5.44%

Structure (SMILES): NC(=O)c1ccc(C(=O)N2CCCC(n3ccnc3)C2)s1 (stereo not drawn)
- cytotoxicity at 70.5 h: -2.91%

Structure (SMILES): c1ncn(CC2CN(CC3CCCCC3)CCO2)n1 (stereo not drawn)
- cytotoxicity at 70.5 h: 2.16%

Structure (SMILES): OCC1CCCN1c1cc(NCc2ccsc2)ncn1 (stereo not drawn)
- cytotoxicity at 70.5 h: 1.84%

Structure (SMILES): Cc1ncsc1CNc1cc(N2CCCC2CO)ncn1 (stereo not drawn)
- cytotoxicity at 70.5 h: 26.9%

Structure (SMILES): CCc1ccc(CNc2cc(N3CCCC3CO)ncn2)s1 (stereo not drawn)
- cytotoxicity at 70.5 h: 1.8%

Structure (SMILES): Cc1n[nH]c(C2CN(CCc3cccs3)CCO2)n1 (stereo not drawn)
- cytotoxicity at 70.5 h: 14.5%

Structure (SMILES): CCCc1n[nH]c(C2CN(CCc3cccs3)CCO2)n1 (stereo not drawn)
- cytotoxicity at 70.5 h: -3.81%

Structure (SMILES): COc1cccc(CN2CCCC2Cn2nc(C)nc2C)c1 (stereo not drawn)
- cytotoxicity at 70.5 h: 3.03%

Structure (SMILES): O=C(CCN1CCc2c(ncn2C2CC2)C1)NC1CCCC1
- cytotoxicity at 70.5 h: -6.41%

Structure (SMILES): CC(C)c1nc(C2CCCN(C(=O)c3ccc4c(c3)COC4)C2)no1 (stereo not drawn)
- cytotoxicity at 70.5 h: 0.421%

Structure (SMILES): Cc1cc(F)ccc1CNCc1cccc(C(=O)N2CCCC2)c1
- cytotoxicity at 70.5 h: -1.53%

Structure (SMILES): CCn1ccnc1CN1CCCN(C(=O)Cc2ccc(C)s2)CC1
- cytotoxicity at 70.5 h: 26.4%

Structure (SMILES): CNS(=O)(=O)c1ccc(CNC(=O)c2c(C)oc(C)c2C)cc1
- cytotoxicity at 70.5 h: -12.9%

Structure (SMILES): O=C(c1cccc(CNS(=O)(=O)c2ccc(F)cc2)c1)N1CCCC1
- cytotoxicity at 70.5 h: -9.64%

Structure (SMILES): CC(C)CCC(=O)NCCc1ccn(-c2ccccc2)n1
- cytotoxicity at 70.5 h: -5.88%

Structure (SMILES): CC(c1nc(C2CC2)no1)N1CCN(Cc2nnc(C3CC3)o2)CC1 (stereo not drawn)
- cytotoxicity at 70.5 h: -2.67%

Structure (SMILES): CCC(CC)C(=O)NCCc1ccn(-c2ccccc2)n1
- cytotoxicity at 70.5 h: -0.813%

Structure (SMILES): CC(C)CCCNC(=O)Nc1ccc(F)c(C(N)=O)c1
- cytotoxicity at 70.5 h: 2.14%

Structure (SMILES): CCn1cc(NC(=O)NCc2ccc3c(c2)OCCO3)cn1
- cytotoxicity at 70.5 h: -13%

Structure (SMILES): COc1ccc(F)cc1C(C)NC(=O)Cn1ccc(=O)n(C)c1=O (stereo not drawn)
- cytotoxicity at 70.5 h: -6.42%

Structure (SMILES): COc1c(CNCc2ccc(C(=O)N3CCCC3)cc2)c(C)nn1C
- cytotoxicity at 70.5 h: 10.8%
